Laboratory results reported in PMC6073568, “Efficient Lead Finding, Activity Enhancement and Preliminary Selectivity Control of Nuclear Receptor Ligands Bearing a Phenanthridinone Skeleton” (International Journal of Molecular Sciences, 2018).
pIC50: −log10 of the molar value.

Experiments:
AR = biological target: T1, AR (Homo sapiens, UniProt P10275); test: AR reporter gene assay in HEK293; type: cell-based; conditions: for pIC50: reporter gene assay, HEK293, agonist dihydrotestosterone 0.3 nM, read-out: AR antagonistic activity (IC50), AR reporter gene
T1 sequence (P10275 1-920): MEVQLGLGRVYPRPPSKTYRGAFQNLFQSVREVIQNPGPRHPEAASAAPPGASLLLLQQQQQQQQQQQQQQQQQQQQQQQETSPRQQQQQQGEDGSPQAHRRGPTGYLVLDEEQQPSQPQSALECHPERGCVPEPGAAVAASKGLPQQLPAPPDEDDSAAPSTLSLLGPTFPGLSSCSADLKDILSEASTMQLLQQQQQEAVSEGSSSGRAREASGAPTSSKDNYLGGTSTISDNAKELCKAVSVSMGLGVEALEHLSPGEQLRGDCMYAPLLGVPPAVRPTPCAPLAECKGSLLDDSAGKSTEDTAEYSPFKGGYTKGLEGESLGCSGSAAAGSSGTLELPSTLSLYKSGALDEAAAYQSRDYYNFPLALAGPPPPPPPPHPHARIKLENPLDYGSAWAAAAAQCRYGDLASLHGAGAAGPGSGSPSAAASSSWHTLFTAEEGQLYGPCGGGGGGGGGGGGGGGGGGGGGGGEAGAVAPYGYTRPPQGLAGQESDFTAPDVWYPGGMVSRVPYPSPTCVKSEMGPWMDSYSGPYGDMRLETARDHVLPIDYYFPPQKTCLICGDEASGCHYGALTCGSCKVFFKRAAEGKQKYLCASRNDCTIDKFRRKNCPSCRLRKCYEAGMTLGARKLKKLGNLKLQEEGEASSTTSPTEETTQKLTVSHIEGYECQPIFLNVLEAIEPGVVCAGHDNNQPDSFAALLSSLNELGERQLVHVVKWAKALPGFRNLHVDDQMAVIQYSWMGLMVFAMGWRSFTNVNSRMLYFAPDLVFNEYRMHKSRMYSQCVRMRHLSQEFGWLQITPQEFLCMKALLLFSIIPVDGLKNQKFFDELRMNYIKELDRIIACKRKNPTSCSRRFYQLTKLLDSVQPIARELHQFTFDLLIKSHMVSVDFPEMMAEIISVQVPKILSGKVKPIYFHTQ

RORβ = biological target: T2, RORβ (Homo sapiens, UniProt Q92753); conditions: reporter gene assay, HEK293; read-out: RORβ inverse agonistic activity (IC50); cited from earlier work
T2 construct: expressed in transfected cells; host or cells: HEK293
T2 sequence (Q92753 1-459 isoform Q92753-1): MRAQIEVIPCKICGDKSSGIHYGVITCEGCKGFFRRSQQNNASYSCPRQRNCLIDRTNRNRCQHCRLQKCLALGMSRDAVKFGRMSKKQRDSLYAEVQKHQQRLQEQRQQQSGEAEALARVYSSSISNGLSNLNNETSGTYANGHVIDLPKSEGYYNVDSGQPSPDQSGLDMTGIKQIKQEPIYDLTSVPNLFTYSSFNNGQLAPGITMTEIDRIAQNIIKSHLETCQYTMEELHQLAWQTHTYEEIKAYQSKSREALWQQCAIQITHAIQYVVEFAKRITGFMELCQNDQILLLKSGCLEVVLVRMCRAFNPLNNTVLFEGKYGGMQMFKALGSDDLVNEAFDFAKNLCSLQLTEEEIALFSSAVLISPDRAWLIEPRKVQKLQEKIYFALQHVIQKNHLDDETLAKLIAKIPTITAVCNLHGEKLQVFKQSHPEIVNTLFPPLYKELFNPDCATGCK

GR = biological target: T3, GR (Homo sapiens, UniProt P04150); test: GR reporter gene assay in HEK293; type: cell-based; conditions: for pIC50: reporter gene assay, HEK293, agonist dexamethasone 1 nM, read-out: GR antagonistic activity (IC50)
T3 construct: expressed in transfected cells; host or cells: HEK293
T3 sequence (P04150 1-777): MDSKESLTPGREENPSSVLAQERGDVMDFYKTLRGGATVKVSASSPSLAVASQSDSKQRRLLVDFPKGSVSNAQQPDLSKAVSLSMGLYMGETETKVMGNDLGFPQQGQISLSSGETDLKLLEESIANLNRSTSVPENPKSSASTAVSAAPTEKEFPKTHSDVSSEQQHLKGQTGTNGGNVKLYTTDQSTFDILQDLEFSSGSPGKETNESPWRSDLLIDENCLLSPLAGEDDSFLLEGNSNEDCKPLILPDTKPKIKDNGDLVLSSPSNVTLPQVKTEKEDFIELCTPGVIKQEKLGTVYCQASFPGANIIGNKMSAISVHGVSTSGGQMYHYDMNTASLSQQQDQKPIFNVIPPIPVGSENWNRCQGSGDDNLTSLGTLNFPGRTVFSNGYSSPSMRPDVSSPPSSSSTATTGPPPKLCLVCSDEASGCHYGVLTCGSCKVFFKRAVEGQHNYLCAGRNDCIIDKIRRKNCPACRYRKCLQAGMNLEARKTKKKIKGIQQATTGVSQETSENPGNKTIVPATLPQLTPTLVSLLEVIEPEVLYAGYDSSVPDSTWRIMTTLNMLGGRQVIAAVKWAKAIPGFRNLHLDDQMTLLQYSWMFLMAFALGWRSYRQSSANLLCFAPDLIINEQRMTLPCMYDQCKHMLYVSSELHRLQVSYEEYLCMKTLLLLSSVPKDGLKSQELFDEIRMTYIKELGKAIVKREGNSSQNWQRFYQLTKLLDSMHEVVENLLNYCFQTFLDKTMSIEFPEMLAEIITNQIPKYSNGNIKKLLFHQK

LXRβ = biological target: T4, LXRβ (Homo sapiens, UniProt P55055); test: LXRβ reporter gene assay in HEK293; type: cell-based; conditions: read-out: LXRβ antagonistic activity (IC50)
T4 construct: CMX-GAL4N-hLXRβ-LBD; expressed in transfected cells; host or cells: HEK293
T4 sequence (P55055 222-460 limits assumed): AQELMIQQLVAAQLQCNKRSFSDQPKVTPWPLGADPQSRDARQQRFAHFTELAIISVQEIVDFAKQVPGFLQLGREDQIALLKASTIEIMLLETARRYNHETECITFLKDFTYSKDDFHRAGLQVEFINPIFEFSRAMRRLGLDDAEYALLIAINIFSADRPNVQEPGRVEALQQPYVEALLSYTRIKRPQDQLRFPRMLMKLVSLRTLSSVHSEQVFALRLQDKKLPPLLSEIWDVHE

LXRα = biological target: T5, LXRα (Homo sapiens, UniProt Q13133); test: LXRα reporter gene assay in HEK293; type: cell-based; conditions: read-out: LXRα antagonistic activity (IC50)
T5 construct: CMX-GAL4N-hLXRα-LBD; expressed in transfected cells; host or cells: HEK293
T5 sequence (Q13133 209-447 limits assumed): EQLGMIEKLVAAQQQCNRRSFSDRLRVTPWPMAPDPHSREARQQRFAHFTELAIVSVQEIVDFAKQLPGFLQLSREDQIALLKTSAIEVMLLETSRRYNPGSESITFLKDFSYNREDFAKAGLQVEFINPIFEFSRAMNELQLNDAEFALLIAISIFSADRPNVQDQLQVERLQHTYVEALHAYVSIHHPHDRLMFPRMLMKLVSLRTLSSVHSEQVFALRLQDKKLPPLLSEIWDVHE

O=c1[nH]c2ccc(C(O)(C(F)(F)F)C(F)(F)F)cc2c2ccccc12 [Compound 1]
pIC50 (AR): 7.00
pIC50 (RORβ): < 4.70
pIC50 (GR): < 4.70

CCCCn1c(=O)c2ccccc2c2ccccc21 [Compound 7]
pIC50 (AR): 4.77
pIC50 (LXRβ): 4.82
pIC50 (RORβ): 4.89
pIC50 (LXRα): 4.72
pIC50 (GR): < 4.70

CCCCn1c(=O)c2ccccc2c2cc(C(C)(C)C)ccc21 [Compound 10]
pIC50 (AR): 4.77
pIC50 (LXRβ): < 4.70
pIC50 (RORβ): 4.89
pIC50 (LXRα): < 4.70
pIC50 (GR): < 4.70

CCCCn1c(=O)c2ccccc2c2cc(CO)ccc21 [Compound 11]
pIC50 (AR): 5.02
pIC50 (LXRβ): < 4.70
pIC50 (RORβ): < 4.70
pIC50 (LXRα): < 4.70
pIC50 (GR): < 4.70

Cn1c(=O)c2ccccc2c2cc(C(O)(C(F)(F)F)C(F)(F)F)ccc21 [Compound 13]
pIC50 (AR): 6.30
pIC50 (RORβ): < 4.70
pIC50 (GR): < 4.70

CCn1c(=O)c2ccccc2c2cc(C(O)(C(F)(F)F)C(F)(F)F)ccc21 [Compound 14]
pIC50 (AR): 5.77
pIC50 (LXRβ): 5.18
pIC50 (RORβ): < 4.70
pIC50 (LXRα): 4.85
pIC50 (GR): < 4.70

CCCCCCCCCn1c(=O)c2ccccc2c2cc(C(O)(C(F)(F)F)C(F)(F)F)ccc21 [Compound 17]
pIC50 (AR): 4.82
pIC50 (LXRβ): < 4.70
pIC50 (RORβ): < 4.70
pIC50 (LXRα): < 4.70
pIC50 (GR): < 4.70

CCCCn1c(=O)c2ccccc2c2c(OC)c(C(O)(C(F)(F)F)C(F)(F)F)ccc21 [Compound 18]
pIC50 (AR): < 4.70
pIC50 (LXRβ): < 4.70
pIC50 (RORβ): < 4.70
pIC50 (LXRα): < 4.70
pIC50 (GR): < 4.70

CCCCn1c(=O)c2ccccc2c2cc(C(O)(C(F)(F)F)C(F)(F)F)c(OC)cc21 [Compound 19]
pIC50 (AR): 5.96
pIC50 (LXRβ): 5.04
pIC50 (RORβ): 5.09
pIC50 (LXRα): 5.08
improved GR activity compared with 12 (GR): 5.7 fold
pIC50 (GR): 5.89

CCCCn1c(=O)c2ccccc2c2cc(C(O)(C(F)(F)F)C(F)(F)F)cc(OC)c21 [Compound 20]
pIC50 (AR): 5.62
pIC50 (LXRβ): 5.26
pIC50 (RORβ): 5.16
pIC50 (LXRα): 5.16
pIC50 (GR): 5.41

CCCCn1c(=O)c2c(OC)cccc2c2cc(C(O)(C(F)(F)F)C(F)(F)F)ccc21 [Compound 21]
pIC50 (AR): 5.03
pIC50 (LXRβ): 4.92
pIC50 (RORβ): 4.82
pIC50 (LXRα): 4.96
pIC50 (GR): 4.85

CCCCn1c(=O)c2cc(OC)ccc2c2cc(C(O)(C(F)(F)F)C(F)(F)F)ccc21 [Compound 22]
pIC50 (AR): 6.00
pIC50 (LXRβ): 4.96
pIC50 (RORβ): 4.82
pIC50 (LXRα): 4.92
pIC50 (GR): 5.09

CCCCn1c(=O)c2ccc(OC)cc2c2cc(C(O)(C(F)(F)F)C(F)(F)F)ccc21 [Compound 23]
pIC50 (AR): < 4.70
pIC50 (LXRβ): 5.62
pIC50 (RORβ): 5.14
pIC50 (LXRα): 5.15
pIC50 (GR): 5.00

CCCCn1c(=O)c2cccc(OC)c2c2cc(C(O)(C(F)(F)F)C(F)(F)F)ccc21 [Compound 24]
pIC50 (AR): < 4.70
pIC50 (LXRβ): 5.37
pIC50 (RORβ): < 4.70
pIC50 (LXRα): 5.34
pIC50 (GR): < 4.70

CCCCn1c(=O)c2ccccc2c2cc(C(O)(C(F)(F)F)C(F)(F)F)c(OC)c(OC)c21 [Compound 25]
pIC50 (AR): 5.21
pIC50 (LXRβ): 5.02
pIC50 (RORβ): < 5.00
pIC50 (LXRα): 5.07
pIC50 (GR): < 4.70

CCCCn1c(=O)c2ccccc2c2cc(C(O)(C(F)(F)F)C(F)(F)F)c3c(c21)OCO3 [Compound 26]
pIC50 (AR): 6.27
pIC50 (LXRβ): < 4.70
pIC50 (RORβ): < 4.70
pIC50 (LXRα): < 4.70
pIC50 (GR): 6.12

O=c1[nH]c2c(Cl)cc(C(O)(C(F)(F)F)C(F)(F)F)cc2c2ccccc12 [Compound 43, 4-Chloro-2-(1,1,1,3,3,3-hexafluoro-2-hydroxypropan-2-yl)phenanthridin-6(5H)-one]
selectivity for AR over LXRα (AR): 90 fold
selectivity for AR over PR (AR): 6 fold
selectivity for AR over RORs and LXRβ (AR): more than 340 fold
pIC50 (AR): 7.23
AR potency relative to OHF (more potent) (AR; under the authors' assay conditions): 2.9 fold
pIC50 (LXRβ): < 4.70
pIC50 (LXRα): 5.28
pIC50 (GR): < 4.70
